Legend:
[1] = system: MDA-MB 231 cells; experiment: Phase contrast microscopy of EMT/MET in Basal/metastatic model; format: cell-based, human; details: Bisindolylmaleimide 4 μM
Protocol: Phase contrast microscopy was utilized for EMT and wound healing assays under 10× or 20× magnification of Olympus Fluorescence 1X71 microscope. Images were captured and analyzed as described above except that wound healing assay pictures were also analyzed by Image J software (Free software in Public domain developed by NIH).
The adherent human mammary adenocarcinoma MCF-7 and MDA-MB-231 cells were cultured in low glucose DMEM (Gibco) and both supplemented with 10% FCS, 2 mM L-glutamine and 0.1% PSN antibiotics. Cells were stimulated with 0.65 ng/ml of phorbol 12-myristate 13-acetate (PMA) (Sigma-Aldrich) or 20 ng/ml of TGF-β (R&D systems) for the times indicated. For Bisindolylmaleimide-I (Calbiochem) or PKC-θ peptide inhibitor (Calbiochem) studies, cells were pre-treated with 1 μM or 30 μM of inhibitor respectively for 1 h prior to stimulation in MCF-7 cells. In case of MDA-MB-231, cells were treated with 4 μM or 30 μM Bisindolylmaleimide-I or PKC-θ peptide inhibitor respectively.
phase contrast microscopy was performed where cells were viewed at ×4 magnification (wound healing assay) or ×10 magnification (EMT) using an Olympus fluorescence IX71 microscope (Olympus) and images were captured using DPController software (2002 Olympus Optical Co. LTD) and analyzed using Photoshop CS3 (Adobe Systems Inc.). Scans were taken with a 10 μm scale bar.

[2] = system: laminin-5, uPAR and CD44 transcripts in MDA-MB 231 cells; experiment: TaqMan real time PCR transcript analysis of EMT/CSC genes in basal/metastatic model; format: cell-based, human; details: bisindolylmaleimide-I 4 μM
Protocol: For most of the experiments, total RNA was extracted from 5×10^5 to 1×10^6 MCF-7 cells unless otherwise specified. Cells were first thawed in 1 mL of Trizol® Reagent (Invitrogen, Carlsbad, Calif.) for 5 minutes at room temperature to inactivate RNases, followed by trituration to dislodge the cell pellet. The dissociated cells suspended in Tizol (1 mL) were transferred into a 1.5 mL Eppendorf tube for 5 minutes for homogenization. RNA was then extracted by addition of 200 μL chloroform and mixing was done vigorously before centrifuging the samples at 8,000×g for 30 minutes at 4° C. The aqueous layer was then collected into a fresh 1.5 mL Eppendorf tube and an equal volume of isopropanolol was added to the aqueous layer and mixed gently. After 5 minutes at room temperature, samples were either snap frozen on dry ice and stored at −70° C. overnight or until the isolation procedure could be re-commenced. […] Next, 2 μL of the sample was taken out to measure RNA quality and quantity on Nano-drop® Spectrophotometer ND 1000 (Nanodrop Technologies, Inc., Wilmington, Del., USA) using ND-1000 V3.30 software. […]
Superscript™® III kit (Invitrogen, Carlsbad, Calif.) was used for cDNA synthesis. […] All the samples were either snap frozen on dry ice or used immediately for quantitative Real-Time PCR analysis. […]

[3] = listed as Broad spectrum PKC pathway inhibitor

## CN(C)CCCn1cc(C2=C(c3c[nH]c4ccccc34)C(=O)NC2=O)c2ccccc21 [bisindolylmaleimide-I]
[1]
  EMT (morphology): inhibits EMT
[1]; [3]
  EMT (morphology): inhibition of EMT and CSC formation
[2]
  transcription of key inducible EMT/CSC genes (laminin-5, uPAR, CD44): inhibits transcription of key inducible EMT/CSC genes
[2]; [3]
  transcription of key inducible EMT/CSC genes (laminin-5, uPAR, CD44): inhibition of EMT and CSC formation

— patent US10485772B2, “Compositions for modulating cancer stem cells and uses therefor” (University of Canberra, priority 2014, dated 2019)
